{"source": "patent US20050197350A1", "about": "“Novel quinoline, tetrahydroquinazoline, and pyrimidine derivatives and methods of treatment related to the use thereof” (TAISHO PHARMACEUTICAL CO., LTD., priority 2003, published 2005)"}
{"test_system": "MCH receptors", "experiment": "MCH receptor activity class (method not given)", "conditions": "class by percent of control at 10^-7 M or IC50"}
{"smiles": "Cc1cccc(C(C)(C)C)c1NC(=O)N[C@H]1CC[C@@H](Nc2nccc(N(C)C)n2)CC1", "note": "[compound 2203]", "class": "3 (Class 3 The value of percent of control at 10^−7 M was more than 60% or the value of IC50 was more than 200 nM.)"}
{"smiles": "CN(C)c1ccnc(N[C@H]2CC[C@@H](NC(=O)Nc3ccccc3C(C)(C)C)CC2)n1", "note": "[compound 2204]", "class": "3 (Class 3 The value of percent of control at 10^−7 M was more than 60% or the value of IC50 was more than 200 nM.)"}
{"smiles": "Cc1c(Cl)cccc1NC(=O)N[C@H]1CC[C@@H](Nc2nccc(N(C)C)n2)CC1", "note": "[compound 2205]", "class": "3 (Class 3 The value of percent of control at 10^−7 M was more than 60% or the value of IC50 was more than 200 nM.)"}
{"smiles": "CN(C)c1ccnc(N[C@H]2CC[C@@H](NC(=O)Nc3c(F)cc(Br)cc3F)CC2)n1", "note": "[compound 2206]", "class": "3 (Class 3 The value of percent of control at 10^−7 M was more than 60% or the value of IC50 was more than 200 nM.)"}
{"smiles": "CN(C)c1ccnc(N[C@H]2CC[C@@H](NC(=O)Nc3ccc(Cl)cc3C(F)(F)F)CC2)n1", "note": "[compound 2207]", "class": "3 (Class 3 The value of percent of control at 10^−7 M was more than 60% or the value of IC50 was more than 200 nM.)"}
{"smiles": "CN(C)c1ccnc(N[C@H]2CC[C@@H](NC(=O)Nc3ccc(C#N)cc3)CC2)n1", "note": "[compound 2208]", "class": "3 (Class 3 The value of percent of control at 10^−7 M was more than 60% or the value of IC50 was more than 200 nM.)"}
{"smiles": "CN(C)c1ccnc(N[C@H]2CC[C@@H](NC(=O)NC(c3ccccc3)c3ccccc3)CC2)n1", "note": "[compound 2209, N-(cis-4-{[4-(dimethylamino)pyrimidin-2-yl]amino}cyclohexyl)-N′-(diphenylmethyl)urea]", "class": "1 (Class 1: The value of percent of control at 10^−7 M was less than 40% or the value of IC50 was less than 50 nM.)"}
{"smiles": "Cc1cc(Br)cc(C)c1NC(=O)N[C@H]1CC[C@@H](Nc2nccc(N(C)C)n2)CC1", "note": "[compound 2210, N-(4-bromo-2,6-dimethylphenyl)-N′-(cis-4-{[4-(dimethylamino)pyrimidin-2-yl]amino}cyclohexyl)urea]", "class": "1 (Class 1: The value of percent of control at 10^−7 M was less than 40% or the value of IC50 was less than 50 nM.)"}
{"smiles": "Cc1noc(-c2ccccc2)c1NC(=O)N[C@H]1CC[C@@H](Nc2nccc(N(C)C)n2)CC1", "note": "[compound 2211]", "class": "3 (Class 3 The value of percent of control at 10^−7 M was more than 60% or the value of IC50 was more than 200 nM.)"}
{"smiles": "Cc1cc(NC(=O)N[C@H]2CC[C@@H](Nc3nccc(N(C)C)n3)CC2)c(C(F)(F)F)o1", "note": "[compound 2212]", "class": "3 (Class 3 The value of percent of control at 10^−7 M was more than 60% or the value of IC50 was more than 200 nM.)"}
{"smiles": "CN(C)c1ccnc(N[C@H]2CC[C@@H](NC(=O)Nc3ccccc3Br)CC2)n1", "note": "[compound 2213]", "class": "3 (Class 3 The value of percent of control at 10^−7 M was more than 60% or the value of IC50 was more than 200 nM.)"}
{"smiles": "CN(C)c1ccnc(N[C@H]2CC[C@@H](NC(=O)Nc3ccccc3-c3ccccc3)CC2)n1", "note": "[compound 2214]", "class": "3 (Class 3 The value of percent of control at 10^−7 M was more than 60% or the value of IC50 was more than 200 nM.)"}
{"smiles": "CCCCNC(=O)N[C@H]1CC[C@@H](Nc2nccc(N(C)C)n2)CC1", "note": "[compound 2215]", "class": "3 (Class 3 The value of percent of control at 10^−7 M was more than 60% or the value of IC50 was more than 200 nM.)"}
{"smiles": "Cc1cccc(NC(=O)N[C@H]2CC[C@@H](Nc3nccc(N(C)C)n3)CC2)c1C", "note": "[compound 2216]", "class": "3 (Class 3 The value of percent of control at 10^−7 M was more than 60% or the value of IC50 was more than 200 nM.)"}
{"smiles": "CCOC(=O)c1cccc(NC(=O)N[C@H]2CC[C@@H](Nc3nccc(N(C)C)n3)CC2)c1", "note": "[compound 2217]", "class": "3 (Class 3 The value of percent of control at 10^−7 M was more than 60% or the value of IC50 was more than 200 nM.)"}
{"smiles": "C=C(C)c1cccc(C(C)(C)NC(=O)N[C@H]2CC[C@@H](Nc3nccc(N(C)C)n3)CC2)c1", "note": "[compound 2218]", "class": "3 (Class 3 The value of percent of control at 10^−7 M was more than 60% or the value of IC50 was more than 200 nM.)"}
{"smiles": "CN(C)c1ccnc(N[C@H]2CC[C@@H](NC(=O)Nc3cccc4ccccc34)CC2)n1", "note": "[compound 2220]", "class": "3 (Class 3 The value of percent of control at 10^−7 M was more than 60% or the value of IC50 was more than 200 nM.)"}
{"smiles": "CN(C)c1ccnc(N[C@H]2CC[C@@H](NC(=O)NC3C[C@H]3c3ccccc3)CC2)n1", "note": "(some centres unmarked) [compound 2221]", "class": "3 (Class 3 The value of percent of control at 10^−7 M was more than 60% or the value of IC50 was more than 200 nM.)"}
{"smiles": "CN(C)c1ccnc(N[C@H]2CC[C@@H](NC(=O)Nc3ccc(Oc4ccccc4)cc3)CC2)n1", "note": "[compound 2222]", "class": "3 (Class 3 The value of percent of control at 10^−7 M was more than 60% or the value of IC50 was more than 200 nM.)"}
{"smiles": "CCCCCNC(=O)N[C@H]1CC[C@@H](Nc2nccc(N(C)C)n2)CC1", "note": "[compound 2223]", "class": "3 (Class 3 The value of percent of control at 10^−7 M was more than 60% or the value of IC50 was more than 200 nM.)"}
{"smiles": "CC(NC(=O)NC1CCC(Nc2nccc(N(C)C)n2)CC1)c1ccccc1", "note": "(centres unmarked) [compound 2227]", "class": "3 (Class 3 The value of percent of control at 10^−7 M was more than 60% or the value of IC50 was more than 200 nM.)"}
{"smiles": "CN(C)c1ccnc(N[C@H]2CC[C@@H](NC(=O)Nc3c(Cl)c(Cl)cc(Cl)c3Cl)CC2)n1", "note": "[compound 2228]", "class": "3 (Class 3 The value of percent of control at 10^−7 M was more than 60% or the value of IC50 was more than 200 nM.)"}
{"smiles": "CN(C)c1ccnc(N[C@H]2CC[C@@H](NC(=O)Nc3ccc(Br)cc3Br)CC2)n1", "note": "[compound 2229]", "class": "3 (Class 3 The value of percent of control at 10^−7 M was more than 60% or the value of IC50 was more than 200 nM.)"}
{"smiles": "CN(C)c1ccnc(N[C@H]2CC[C@@H](NC(=O)NCc3ccc(Cl)cc3Cl)CC2)n1", "note": "[compound 2230]", "class": "3 (Class 3 The value of percent of control at 10^−7 M was more than 60% or the value of IC50 was more than 200 nM.)"}
{"smiles": "COc1ccc(NC(=O)N[C@H]2CC[C@@H](Nc3nccc(N(C)C)n3)CC2)c(OC)c1", "note": "[compound 2231]", "class": "3 (Class 3 The value of percent of control at 10^−7 M was more than 60% or the value of IC50 was more than 200 nM.)"}
{"smiles": "CCOc1ccccc1NC(=O)N[C@H]1CC[C@@H](Nc2nccc(N(C)C)n2)CC1", "note": "[compound 2232]", "class": "3 (Class 3 The value of percent of control at 10^−7 M was more than 60% or the value of IC50 was more than 200 nM.)"}
{"smiles": "CN(C)c1ccnc(N[C@H]2CC[C@@H](NC(=O)NCc3ccccc3F)CC2)n1", "note": "[compound 2233]", "class": "3 (Class 3 The value of percent of control at 10^−7 M was more than 60% or the value of IC50 was more than 200 nM.)"}
{"smiles": "Cc1cc([N+](=O)[O-])ccc1NC(=O)N[C@H]1CC[C@@H](Nc2nccc(N(C)C)n2)CC1", "note": "[compound 2234]", "class": "3 (Class 3 The value of percent of control at 10^−7 M was more than 60% or the value of IC50 was more than 200 nM.)"}
{"smiles": "Cc1ccc([N+](=O)[O-])cc1NC(=O)N[C@H]1CC[C@@H](Nc2nccc(N(C)C)n2)CC1", "note": "[compound 2235]", "class": "3 (Class 3 The value of percent of control at 10^−7 M was more than 60% or the value of IC50 was more than 200 nM.)"}
{"smiles": "Cc1ccccc1CNC(=O)N[C@H]1CC[C@@H](Nc2nccc(N(C)C)n2)CC1", "note": "[compound 2236]", "class": "3 (Class 3 The value of percent of control at 10^−7 M was more than 60% or the value of IC50 was more than 200 nM.)"}
{"smiles": "CN(C)c1ccnc(N[C@H]2CC[C@@H](NC(=O)Nc3ccccc3[N+](=O)[O-])CC2)n1", "note": "[compound 2237]", "class": "3 (Class 3 The value of percent of control at 10^−7 M was more than 60% or the value of IC50 was more than 200 nM.)"}
{"smiles": "CN(C)c1ccnc(N[C@H]2CC[C@@H](NC(=O)Nc3ccc4c(c3)OCO4)CC2)n1", "note": "[compound 2238]", "class": "3 (Class 3 The value of percent of control at 10^−7 M was more than 60% or the value of IC50 was more than 200 nM.)"}
{"smiles": "COc1cc(NC(=O)N[C@H]2CC[C@@H](Nc3nccc(N(C)C)n3)CC2)cc(OC)c1OC", "note": "[compound 2239, N-(cis-4-{[4-(dimethylamino)pyrimidin-2-yl]amino}cyclohexyl)-N′-(3,4,5-trimethoxyphenyl)urea]", "class": "1 (Class 1: The value of percent of control at 10^−7 M was less than 40% or the value of IC50 was less than 50 nM.)"}
{"smiles": "COc1ccc(NC(=O)N[C@H]2CC[C@@H](Nc3nccc(N(C)C)n3)CC2)cc1OC", "note": "[compound 2240]", "class": "3 (Class 3 The value of percent of control at 10^−7 M was more than 60% or the value of IC50 was more than 200 nM.)"}
{"smiles": "COc1ccc(NC(=O)N[C@H]2CC[C@@H](Nc3nccc(N(C)C)n3)CC2)cc1Cl", "note": "[compound 2241]", "class": "3 (Class 3 The value of percent of control at 10^−7 M was more than 60% or the value of IC50 was more than 200 nM.)"}
{"smiles": "CN(C)c1ccnc(N[C@H]2CC[C@@H](NC(=O)Nc3ccc(Br)cc3C(F)(F)F)CC2)n1", "note": "[compound 2242]", "class": "3 (Class 3 The value of percent of control at 10^−7 M was more than 60% or the value of IC50 was more than 200 nM.)"}
{"smiles": "CN(C)c1ccnc(N[C@H]2CC[C@@H](NC(=O)NCc3ccc(Br)cc3)CC2)n1", "note": "[compound 2243]", "class": "3 (Class 3 The value of percent of control at 10^−7 M was more than 60% or the value of IC50 was more than 200 nM.)"}
{"smiles": "Cc1cc(Cl)ccc1NC(=O)N[C@H]1CC[C@@H](Nc2nccc(N(C)C)n2)CC1", "note": "[compound 2244, N-(4-chloro-2-methylphenyl)-N′-(cis-4-{[4-(dimethylamino)pyrimidin-2-yl]amino}cyclohexyl)urea]", "class": "2 (Class 2: The value of percent of control at 10^−7 M was from 40% to 60% or the value of IC′50 was from 50 nM to 200 nM.)"}
{"smiles": "CN(C)c1ccnc(N[C@H]2CC[C@@H](NC(=O)NCc3ccc(F)cc3)CC2)n1", "note": "[compound 2245]", "class": "3 (Class 3 The value of percent of control at 10^−7 M was more than 60% or the value of IC50 was more than 200 nM.)"}
{"smiles": "COc1ccc(NC(=O)N[C@H]2CC[C@@H](Nc3nccc(N(C)C)n3)CC2)c(C)c1", "note": "[compound 2246]", "class": "3 (Class 3 The value of percent of control at 10^−7 M was more than 60% or the value of IC50 was more than 200 nM.)"}
{"smiles": "COc1cc(OC)c(NC(=O)N[C@H]2CC[C@@H](Nc3nccc(N(C)C)n3)CC2)cc1Cl", "note": "[compound 2247]", "class": "1 (Class 1: The value of percent of control at 10^−7 M was less than 40% or the value of IC50 was less than 50 nM.)"}
